25 compounds from US11058688B2, “Imidazopiperazine inhibitors of transcription activating proteins” (Board of Regents, The University of Texas System, priority 2018, dated 2021) can be followed below.

Usually IC50 stands for the concentration at which inhibition is half-maximal.

In experiment [1] the target is GST-CBP(1081-1197) bromodomain (Homo sapiens (Human), UniProt Q92793). Put plainly: CBP AlphaScreen Assay. The following applies: binding to biotin-H4(1-21) Ac-K5/8/12/16 peptide. An outline of the steps:
(§1)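 IC50 values derived by variable-slope dose-response fit between negative and DMSO control signals. AlphaScreen signal reports bromodomain association with an H4(1-21) peptide acetylated at K5, K8, K12 and K16.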
For orientation: In Alpha technology, singlet oxygen from a donor bead excites a nearby acceptor bead.

The target in another experiment is BRD4(49-170) bromodomain (Homo sapiens (Human), UniProt O60885). Put plainly: BRD4 AlphaScreen Assay. The following applies: binding to biotin-H4(1-21) Ac-K5/8/12/16 peptide. The procedure, abridged:
as §1

Molecules are shown by their SMILES. Where only a bound is given, the exact number is not on record here.

GST-CBP(1081-1197) bromodomain, sequence (Q92793 1081-1197): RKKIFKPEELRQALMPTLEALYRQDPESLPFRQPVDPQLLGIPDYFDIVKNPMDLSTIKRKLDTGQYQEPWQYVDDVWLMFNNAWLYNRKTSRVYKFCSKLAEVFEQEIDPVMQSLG

Consider `CNC(=O)c1ccc(-c2nc3cccc(-c4nc(C5CC5)n5c4CN(C(=O)NC)CC5)c3cc2C#N)cn1` [Example 99, 1-(3-cyano-2-(6-(methylcarbamoyl)pyridin-3-yl)quinolin-5-yl)-3-cyclopropyl-N-methyl-5,6-dihydroimidazo[1,5-a]pyrazine-7(8H)-carboxamide], for which the half-inhibitory concentration (IC50) is 11 nM in experiment [1] and 8.71 µM on BRD4(49-170) bromodomain.
Turning to `CNC(=O)N1CCn2c(C3CC3)nc(-c3cccc4nc(-c5cnc(C)s5)c(C#N)cc34)c2C1` [Example 100, 1-(3-cyano-2-(2-methylthiazol-5-yl)quinolin-5-yl)-3-cyclopropyl-N-methyl-5,6-dihydroimidazo[1,5-a]pyrazine-7(8H)-carboxamide], the figures for the half-maximal inhibitory concentration (IC50) (in experiment [1]; on BRD4(49-170) bromodomain) were 4 nM and 7.95 µM, respectively.
For the compound `CNC(=O)N1CCn2c(C3CC3)nc(-c3cccc4nc(-c5cn(C)nc5C)c(C(F)(F)F)cc34)c2C1` [Example 101, 3-cyclopropyl-1-(2-(1,3-dimethyl-1H-pyrazol-4-yl)-3-(trifluoromethyl)quinolin-5-yl)-N-methyl-5,6-dihydroimidazo[1,5-a]pyrazine-7(8H)-carboxamide], the IC50 in experiment [1] is 19 nM; on BRD4(49-170) bromodomain, 24.7 µM.
With `CNC(=O)N1CCn2c(C3CC3)nc(-c3cccc4nc(N5CC6(COC6)C5)c(C#N)cc34)c2C1` [Example 102, 1-(3-cyano-2-(2-oxa-6-azaspiro[3.3]heptan-6-yl)quinolin-5-yl)-3-cyclopropyl-N-methyl-5,6-dihydroimidazo[1,5-a]pyrazine-7(8H)-carboxamide], the values for the IC50 (in experiment [1]; at BRD4(49-170) bromodomain) were 19 nM and above 25 µM, respectively.
The corresponding values for `CC(=O)N1CCn2c(C3CCOC3)nc(-c3cc4c(-c5cnn(C)c5)nn(C)c4cc3F)c2C1` (centres unmarked) [Example 103, 1-(1-(6-fluoro-1-methyl-3-(1-methyl-1H-pyrazol-4-yl)-1H-indazol-5-yl)-3-(tetrahydrofuran-3-yl)-5,6-dihydroimidazo[1,5-a]pyrazin-7(8H)-yl)ethan-1-one] are 147 nM and above 25 µM.
As to `CC(=O)N1CCn2c(C3CCOCC3)nc(-c3ccc4c(c3)c(-c3cnn(C)c3)nn4C)c2C1` [Example 104, 1-(1-(1-methyl-3-(1-methyl-1H-pyrazol-4-yl)-1H-indazol-5-yl)-3-(tetrahydro-2H-pyran-4-yl)-5,6-dihydroimidazo[1,5-a]pyrazin-7(8H)-yl)ethan-1-one], the figures for the IC50 (in experiment [1]; on BRD4(49-170) bromodomain) were 107 nM and 3.73 µM, respectively.
Consider `CNC(=O)N1CCn2c(C3CC3)nc(-c3ccc4c(c3)c(-c3cnn(C)c3)nn4C)c2C1` [Example 105, 3-cyclopropyl-N-methyl-1-(1-methyl-3-(1-methyl-1H-pyrazol-4-yl)-1H-indazol-5-yl)-5,6-dihydroimidazo[1,5-a]pyrazine-7(8H)-carboxamide], for which the IC50 in experiment [1] came to 15 nM; at BRD4(49-170) bromodomain it was 7.53 µM.
In the case of `CC(=O)N1CCn2c(C3CC3)nc(-c3ccc4c(c3)c(-c3cn(C)nc3C)nn4C)c2C1` [Example 106, 1-(3-cyclopropyl-1-(3-(1,3-dimethyl-1H-pyrazol-4-yl)-1methyl-1H-indazol-5-yl)-5,6-dihydroimidazo[1,5-a]pyrazin-7(8H)-yl)ethan-1-one], the values for the half-maximal inhibitory concentration (IC50) (in experiment [1]; at BRD4(49-170) bromodomain) were 286 nM and above 25 µM, respectively.
Regarding `CC(=O)N1CCn2c(C3CC3)nc(N3CCCc4cc(-c5cncc(S(C)(=O)=O)c5)ccc43)c2C1` [Example 107, 1-(3-cyclopropyl-1-(6-(5-(methylsulfonyl)pyridin-3-yl)-3,4-dihydroquinolin-1(2H)-yl)-5,6-dihydroimidazo[1,5-a]pyrazin-7(8H)-yl)ethan-1-one], the IC50 in experiment [1] was 510 nM; on BRD4(49-170) bromodomain it was above 25 µM.
Consider `CC(=O)N1CCn2c(C3CC3)nc(N3CCCc4cc(-c5cnn(C6CC6)c5)ccc43)c2C1` [Example 108, 1-(3-cyclopropyl-1-(6-(1-cyclopropyl-1H-pyrazol-4-yl)-3,4-dihydroquinolin-1(2H)-yl)-5,6-dihydroimidazo[1,5-a]pyrazin-7(8H)-yl)ethan-1-one], for which the half-maximal inhibitory concentration (IC50) in experiment [1] stood at 148 nM; on BRD4(49-170) bromodomain it was 14.3 µM.
On to `CC(=O)N1CCn2c(C3CC3)nc(N3CCCc4cc(-c5cnn(C6CCOCC6)c5)ccc43)c2C1` [Example 109, 1-(3-cyclopropyl-1-(6-(1-(tetrahydro-2H-pyran-4-yl)-1H-pyrazol-4-yl)-3,4-dihydroquinolin-1(2H)-yl)-5,6-dihydroimidazo[1,5-a]pyrazin-7(8H)-yl)ethan-1-one], for which the half-inhibitory concentration (IC50) is 349 nM in experiment [1] and 13.8 µM at BRD4(49-170) bromodomain.
`CC(=O)N1CCn2c(C3CC3)nc(N3CCCc4cc(-c5cnn(C(F)F)c5)ccc43)c2C1` [Example 110, 1-(3-cyclopropyl-1-(6-(1-(difluoromethyl)-1H-pyrazol-4-yl)-3,4-dihydroquinolin-1(2H)-yl)-5,6-dihydroimidazo[1,5-a]pyrazin-7(8H)-yl)ethan-1-one]: the results for the IC50 (in experiment [1]; at BRD4(49-170) bromodomain) were 185 nM and 11.2 µM, respectively.
In the case of `CC(=O)N1CCn2c(C3CC3)nc(N3CCCc4cc(-c5c(C)noc5C)ccc43)c2C1` [Example 111, 1-(3-cyclopropyl-1-(6-(3,5-dimethylisoxazol-4-yl)-3,4-dihydroquinolin-1(2H)-yl)-5,6-dihydroimidazo[1,5-a]pyrazin-7(8H)-yl)ethan-1-one], the half-inhibitory concentration (IC50) in experiment [1] was found to be 1450 nM; at BRD4(49-170) bromodomain, 10.3 µM.
Turning to `CC(=O)N1CCn2c(C3CC3)nc(N3CCCc4cc(-c5ccnc(N6CCOCC6)c5)ccc43)c2C1` [Example 112, 1-(3-cyclopropyl-1-(6-(2-morpholinopyridin-4-yl)-3,4-dihydroquinolin-1(2H)-yl)-5,6-dihydroimidazo[1,5-a]pyrazin-7(8H)-yl)ethan-1-one], the results for the IC50 (in experiment [1]; at BRD4(49-170) bromodomain) were 270 nM and 21 µM, respectively.
For `CC(=O)N1CCn2c(C3CC3)nc(N3CCCc4cc(-c5ccc(=O)n(C)c5)ccc43)c2C1` [Example 113, 5-(1-(7-acetyl-3-cyclopropyl-5,6,7,8-tetrahydroimidazo[1,5-a]pyrazin-1-yl)-1,2,3,4-tetrahydroquinolin-6-yl)-1-methylpyridin-2(1H)-one], the 50% inhibitory concentration (IC50) worked out at 193 nM in experiment [1] and 3.46 µM at BRD4(49-170) bromodomain.
Consider `CC(=O)N1CCn2c(C3CC3)nc(N3CCCc4cc(-c5ccncc5)ccc43)c2C1` [Example 114, 1-(3-cyclopropyl-1-(6-(pyridin-4-yl)-3,4-dihydroquinolin-1(2H)-yl)-5,6-dihydroimidazo[1,5-a]pyrazin-7(8H)-yl)ethan-1-one], for which the IC50 in experiment [1] was 615 nM; at BRD4(49-170) bromodomain it was above 25 µM.
For `CC(=O)N1CCn2c(C3CC3)nc(N3CCCc4cc(-c5cnn(CC6CC6)c5)ccc43)c2C1` [Example 115, 1-(3-cyclopropyl-1-(6-(1-(cyclopropylmethyl)-1H-pyrazol-4-yl)-3,4-dihydroquinolin-1(2H)-yl)-5,6-dihydroimidazo[1,5-a]pyrazin-7(8H)-yl)ethan-1-one], the IC50 is 679 nM in experiment [1] and above 25 µM on BRD4(49-170) bromodomain.
For the compound `CC(=O)N1CCn2c(C3CC3)nc(N3CCCc4cc(-c5cnn(Cc6ccccn6)c5)ccc43)c2C1` [Example 116, 1-(3-cyclopropyl-1-(6-(1-(pyridin-2-ylmethyl)-1H-pyrazol-4-yl)-3,4-dihydroquinolin-1(2H)-yl)-5,6-dihydroimidazo[1,5-a]pyrazin-7(8H)-yl)ethan-1-one], the IC50 is 1280 nM in experiment [1] and above 25 µM on BRD4(49-170) bromodomain.
In the case of `CNC(=O)c1cc(-c2ccc3c(c2)CCCN3c2nc(C3CC3)n3c2CN(C(C)=O)CC3)ccn1` [Example 117, 4-(1-(7-acetyl-3-cyclopropyl-5,6,7,8-tetrahydroimidazo[1,5-a]pyrazin-1-yl)-1,2,3,4-tetrahydroquinolin-6-yl)-N-methylpicolinamide], the concentration for half-maximal inhibition (IC50) in experiment [1] was 739 nM; on BRD4(49-170) bromodomain it was above 25 µM.
For `CC(=O)N1CCn2c(C3CC3)nc(N3CCCc4cc(-c5ccnc(C(F)(F)F)c5)ccc43)c2C1` [Example 118, 1-(3-cyclopropyl-1-(6-(2-(trifluoromethyl)pyridin-4-yl)-3,4-dihydroquinolin-1(2H)-yl)-5,6-dihydroimidazo[1,5-a]pyrazin-7(8H)-yl)ethan-1-one], in that order: 715 nM and above 25 µM.
Regarding `CC(=O)N1CCn2c(C3CC3)nc(N3CCCc4cc(-c5cnn(C6CCC6)c5)ccc43)c2C1` [Example 119, 1-(1-(6-(1-cyclobutyl-1H-pyrazol-4-yl)-3,4-dihydroquinolin-1(2H)-yl)-3-cyclopropyl-5,6-dihydroimidazo[1,5-a]pyrazin-7(8H)-yl)ethan-1-one], the IC50 in experiment [1] was 313 nM; on BRD4(49-170) bromodomain it was above 25 µM.
Turning to `CC(=O)N1CCn2c(C3CC3)nc(N3CCCc4cc(-c5cccc(S(N)(=O)=O)c5)ccc43)c2C1` [Example 120, 3-(1-(7-acetyl-3-cyclopropyl-5,6,7,8-tetrahydroimidazo[1,5-a]pyrazin-1-yl)-1,2,3,4-tetrahydroquinolin-6-yl)benzenesulfonamide], the IC50 in experiment [1] was 358 nM; at BRD4(49-170) bromodomain, above 25 µM.
For the compound `CC(=O)N1CCn2c(C3CC3)nc(N3CCCc4cc(-c5cnn(CCO)c5)ccc43)c2C1` [Example 121, 1-(3-cyclopropyl-1-(6-(1-(2-hydroxyethyl)-1H-pyrazol-4-yl)-3,4-dihydroquinolin-1(2H)-yl)-5,6-dihydroimidazo[1,5-a]pyrazin-7(8H)-yl)ethan-1-one], the IC50 in experiment [1] was 576 nM; on BRD4(49-170) bromodomain, above 25 µM.
Consider `CC(=O)N1CCn2c(C3CC3)nc(N3CCCc4cc(-c5cnn(CCN6CCOCC6)c5)ccc43)c2C1` [Example 122, 1-(3-cyclopropyl-1-(6-(1-(2-morpholinoethyl)-1H-pyrazol-4-yl)-3,4-dihydroquinolin-1(2H)-yl)-5,6-dihydroimidazo[1,5-a]pyrazin-7(8H)-yl)ethan-1-one], for which the IC50 in experiment [1] was 500 nM; at BRD4(49-170) bromodomain, above 25 µM.
On to `CNC(=O)N1CCn2c(C3CCOCC3)nc(-c3cccc4nc(-c5cnn(C)c5)c(C(F)F)cc34)c2C1` [Example 123, 1-(3-(difluoromethyl)-2-(1-methyl-1H-pyrazol-4-yl)quinolin-5-yl)-N-methyl-3-(tetrahydro-2H-pyran-4-yl)-5,6-dihydroimidazo[1,5-a]pyrazine-7(8H)-carboxamide], for which the IC50 was 19 nM in experiment [1] and above 25 µM at BRD4(49-170) bromodomain.
